# Source: ChEMBL document CHEMBL1201862, “PubChem BioAssay data set” (2004)
# Activity calls are given as the source filed them.
# What was measured:
# Escherichia coli [1] = assay: microbe, parasite or virus in culture
# [2] = target: Type-1 angiotensin II receptor (Homo sapiens, UniProt P30556); assay: antagonism of angiotensin II type 1 receptor – cell-based, uHTS hits, selectivity assay for APJ receptor antagonist project, dose response (AID 463214); type: functional;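 further: antagonist potency against angiotensin II stimulated AT1 response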
# Sequence of Type-1 angiotensin II receptor (P30556 whole entry): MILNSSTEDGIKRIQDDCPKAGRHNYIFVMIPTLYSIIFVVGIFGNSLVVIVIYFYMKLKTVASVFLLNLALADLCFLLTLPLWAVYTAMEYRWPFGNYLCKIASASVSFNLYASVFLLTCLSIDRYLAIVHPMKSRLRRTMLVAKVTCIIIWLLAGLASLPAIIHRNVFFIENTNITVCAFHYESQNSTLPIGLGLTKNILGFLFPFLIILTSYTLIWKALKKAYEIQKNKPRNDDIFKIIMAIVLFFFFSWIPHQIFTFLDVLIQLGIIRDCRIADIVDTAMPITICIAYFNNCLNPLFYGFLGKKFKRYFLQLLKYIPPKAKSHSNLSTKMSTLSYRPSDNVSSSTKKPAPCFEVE
# Beta-galactosidase = Beta-galactosidase (Escherichia coli, UniProt Q8VNN2); assay: PubChem AID 485352; type: functional
# Sequence of Beta-galactosidase (Q8VNN2 whole entry): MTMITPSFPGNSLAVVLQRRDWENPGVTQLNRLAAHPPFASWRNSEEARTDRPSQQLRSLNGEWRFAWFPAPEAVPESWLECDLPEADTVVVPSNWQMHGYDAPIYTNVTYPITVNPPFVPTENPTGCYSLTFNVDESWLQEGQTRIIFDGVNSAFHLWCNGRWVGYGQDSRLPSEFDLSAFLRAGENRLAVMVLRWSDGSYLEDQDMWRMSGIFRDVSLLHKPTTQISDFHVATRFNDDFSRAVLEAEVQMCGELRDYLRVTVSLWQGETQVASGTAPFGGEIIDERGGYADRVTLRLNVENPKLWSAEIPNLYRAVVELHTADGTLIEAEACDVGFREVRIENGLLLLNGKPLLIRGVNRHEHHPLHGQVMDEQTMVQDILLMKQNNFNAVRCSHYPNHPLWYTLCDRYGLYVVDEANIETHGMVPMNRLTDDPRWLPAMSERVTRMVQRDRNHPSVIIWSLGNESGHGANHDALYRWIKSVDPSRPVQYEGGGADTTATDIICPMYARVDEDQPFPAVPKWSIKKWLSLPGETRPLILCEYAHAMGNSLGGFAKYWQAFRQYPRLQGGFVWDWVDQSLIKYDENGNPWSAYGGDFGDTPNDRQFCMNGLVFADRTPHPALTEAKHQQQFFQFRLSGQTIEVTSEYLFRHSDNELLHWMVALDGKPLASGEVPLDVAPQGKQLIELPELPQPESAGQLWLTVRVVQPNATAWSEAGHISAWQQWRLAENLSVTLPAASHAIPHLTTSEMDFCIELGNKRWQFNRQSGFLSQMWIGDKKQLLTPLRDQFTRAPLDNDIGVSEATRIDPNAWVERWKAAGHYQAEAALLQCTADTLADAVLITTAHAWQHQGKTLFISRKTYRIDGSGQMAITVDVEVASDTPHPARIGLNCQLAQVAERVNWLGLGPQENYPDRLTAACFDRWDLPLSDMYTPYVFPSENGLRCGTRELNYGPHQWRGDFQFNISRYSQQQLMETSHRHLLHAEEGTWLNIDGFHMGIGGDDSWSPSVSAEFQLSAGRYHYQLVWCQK
# HeLa = assay: ATP-based viability loss in HeLa cells – cell-based, CellTiter-Glo luminescence, cherry-pick samples, cytotoxicity control for MITF activator project, dose response (AID 540259); type: functional; details: Homo sapiens
# Trypsin = Trypsin (Sus scrofa, UniProt P00761); assay: trypsin protease activity blockade – biochemical, quenched peptide fluorescence, cherry-pick, selectivity assay for Rce1 protease inhibitor project, dose response (AID 488789)
# Sequence of Trypsin (P00761 whole entry): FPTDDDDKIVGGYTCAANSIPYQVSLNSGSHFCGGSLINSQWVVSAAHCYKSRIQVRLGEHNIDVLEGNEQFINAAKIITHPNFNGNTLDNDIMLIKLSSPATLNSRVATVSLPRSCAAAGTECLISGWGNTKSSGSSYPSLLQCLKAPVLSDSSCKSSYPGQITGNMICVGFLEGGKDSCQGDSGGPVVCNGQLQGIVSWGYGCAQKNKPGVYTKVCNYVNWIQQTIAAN
# CAAX prenyl protease 2 = CAAX prenyl protease 2 (Homo sapiens, UniProt Q9Y256); assay: inhibition of Ras-converting CAAX protease Rce1 – biochemical, yeast membranes, quenched-peptide fluorescence, cherry-pick, dose response (AID 588849)
# Sequence of CAAX prenyl protease 2 (Q9Y256 whole entry): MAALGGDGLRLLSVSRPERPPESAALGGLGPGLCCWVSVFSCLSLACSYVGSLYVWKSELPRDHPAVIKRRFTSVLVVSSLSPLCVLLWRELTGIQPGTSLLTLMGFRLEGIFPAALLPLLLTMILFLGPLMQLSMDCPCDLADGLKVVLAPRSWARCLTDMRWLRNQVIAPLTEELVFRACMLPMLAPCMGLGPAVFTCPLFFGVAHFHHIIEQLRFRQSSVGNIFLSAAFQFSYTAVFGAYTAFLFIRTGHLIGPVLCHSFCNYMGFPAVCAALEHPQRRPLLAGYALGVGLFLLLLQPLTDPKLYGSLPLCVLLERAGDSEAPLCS
# [3] = target: T1, Endoribonuclease toxin MazF (Escherichia coli K-12, UniProt P0AE70); assay: substrate-only fluorescence increase artefacts – biochemical, single-stranded RNase substrate, counter-screen for MazEF activator project, dose response (AID 588502); type: functional
# T1 sequence (P0AE70 whole entry): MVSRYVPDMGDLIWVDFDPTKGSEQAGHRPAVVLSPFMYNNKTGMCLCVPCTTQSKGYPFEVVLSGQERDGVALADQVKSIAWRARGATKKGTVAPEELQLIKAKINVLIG
# [4] = target: T1, Endoribonuclease toxin MazF; assay: activation of MazEF endoribonuclease cleavage – biochemical, fluorescence, single-stranded RNA substrate, uHTS hits, dose response (AID 588481); type: functional
# [5] = target: Heat shock protein HSP 90-alpha (Homo sapiens, UniProt P07900); type: functional, organism-based
# Streptococcus = assay: GAS UMAA2166 growth inhibition – luminescence, BacTiterGlo, counter-screen for streptokinase expression inhibitor project, dose response (AID 1915); type: functional, organism-based;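 further: potency for reduction of bacterial viability or growth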
# [6] = microbe, parasite or virus in culture; type: functional; details: Mycobacterium tuberculosis
# [7] = tested on: Streptococcus sp. 'group A'; assay: Streptococcus pyogenes SK(-)GAS viability under kanamycin – luminescence, BacTiterGlo, confirmation, counter-screen for streptokinase expression inhibitor project, dose response (AID 1900); type: functional, organism-based
# Escherichia coli [8] = assay: microbe, parasite or virus in culture; remark: listed apart in the source
# NS3 = NS3 (Hepatitis C virus, UniProt A3EZJ3); assay: PubChem AID 2173; parameters: species or system Hepacivirus hominis
# Sequence of NS3 (A3EZJ3 whole entry): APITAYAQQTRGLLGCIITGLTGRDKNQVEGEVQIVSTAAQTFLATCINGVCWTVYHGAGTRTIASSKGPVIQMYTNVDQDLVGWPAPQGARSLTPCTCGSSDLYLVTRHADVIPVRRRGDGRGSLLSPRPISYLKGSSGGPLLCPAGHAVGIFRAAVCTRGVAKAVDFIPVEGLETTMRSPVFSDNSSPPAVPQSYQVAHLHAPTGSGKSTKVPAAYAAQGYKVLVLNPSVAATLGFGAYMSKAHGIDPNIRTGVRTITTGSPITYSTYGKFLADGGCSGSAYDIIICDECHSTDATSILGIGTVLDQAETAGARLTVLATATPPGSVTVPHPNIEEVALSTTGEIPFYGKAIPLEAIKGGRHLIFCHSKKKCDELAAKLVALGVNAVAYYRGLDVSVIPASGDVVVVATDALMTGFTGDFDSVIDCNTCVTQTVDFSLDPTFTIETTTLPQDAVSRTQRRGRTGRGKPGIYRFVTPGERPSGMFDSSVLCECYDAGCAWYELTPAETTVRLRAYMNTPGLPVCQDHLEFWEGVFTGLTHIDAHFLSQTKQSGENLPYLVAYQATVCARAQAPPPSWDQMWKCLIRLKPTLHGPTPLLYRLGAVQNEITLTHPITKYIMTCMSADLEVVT
# [9] = target: T2, Low molecular weight phosphotyrosine protein phosphatase (Homo sapiens, UniProt P24666); type: functional; details: read-out: IC50_Mean;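 further: Dose-response confirmation assay measuring inhibition of LMPTP enzyme activity by fluorescence intensity read-out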
# T2 sequence (P24666 whole entry): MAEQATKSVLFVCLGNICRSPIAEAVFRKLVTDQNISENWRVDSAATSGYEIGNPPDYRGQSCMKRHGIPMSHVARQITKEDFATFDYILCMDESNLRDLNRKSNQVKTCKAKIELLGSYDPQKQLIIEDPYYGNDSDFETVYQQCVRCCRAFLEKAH
# DNA topoisomerase = DNA topoisomerase (Yersinia pestis, UniProt A0A2S9PM60); assay: Yersinia topoisomerase I cleavage product accumulation – biochemical, cherry-pick, dose response (AID 588525)
# Sequence of DNA topoisomerase (A0A2S9PM60 whole entry): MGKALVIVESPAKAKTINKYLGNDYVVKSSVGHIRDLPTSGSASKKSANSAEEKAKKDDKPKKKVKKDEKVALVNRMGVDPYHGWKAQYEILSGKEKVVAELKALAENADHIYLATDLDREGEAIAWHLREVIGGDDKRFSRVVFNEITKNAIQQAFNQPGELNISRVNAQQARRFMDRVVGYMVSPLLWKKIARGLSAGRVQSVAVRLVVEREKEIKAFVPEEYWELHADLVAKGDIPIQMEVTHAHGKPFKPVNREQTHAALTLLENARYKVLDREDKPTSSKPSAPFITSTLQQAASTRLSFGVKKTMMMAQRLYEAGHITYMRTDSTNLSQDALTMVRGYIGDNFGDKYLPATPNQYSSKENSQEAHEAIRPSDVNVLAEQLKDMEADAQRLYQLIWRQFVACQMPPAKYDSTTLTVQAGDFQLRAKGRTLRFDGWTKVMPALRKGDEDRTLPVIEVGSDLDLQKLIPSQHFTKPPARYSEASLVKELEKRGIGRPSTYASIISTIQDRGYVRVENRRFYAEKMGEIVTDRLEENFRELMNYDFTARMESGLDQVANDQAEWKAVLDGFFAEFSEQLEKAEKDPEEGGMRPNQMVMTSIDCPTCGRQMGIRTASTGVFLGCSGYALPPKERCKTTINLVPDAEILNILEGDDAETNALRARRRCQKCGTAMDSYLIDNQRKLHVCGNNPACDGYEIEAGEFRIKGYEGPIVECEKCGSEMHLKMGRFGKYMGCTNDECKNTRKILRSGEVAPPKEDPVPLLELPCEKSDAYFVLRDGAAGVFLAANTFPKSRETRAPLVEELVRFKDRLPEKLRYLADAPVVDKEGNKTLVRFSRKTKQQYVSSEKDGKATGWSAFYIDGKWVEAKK
# Beta Lactamase = Beta Lactamase (Pseudomonas aeruginosa, UniProt Q932Y6); assay: BLA reporter interference, concentration series – BLA reporter cells, FRET fluorescence, artefact control for TLR9-MyD88 binding inhibitor project, dose response (AID 588341); type: cell-based;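 further: cell based assay in CHO-K1 cells stably expressing beta-lactamase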
# Sequence of Beta Lactamase (Q932Y6 whole entry, the tested form may be a part): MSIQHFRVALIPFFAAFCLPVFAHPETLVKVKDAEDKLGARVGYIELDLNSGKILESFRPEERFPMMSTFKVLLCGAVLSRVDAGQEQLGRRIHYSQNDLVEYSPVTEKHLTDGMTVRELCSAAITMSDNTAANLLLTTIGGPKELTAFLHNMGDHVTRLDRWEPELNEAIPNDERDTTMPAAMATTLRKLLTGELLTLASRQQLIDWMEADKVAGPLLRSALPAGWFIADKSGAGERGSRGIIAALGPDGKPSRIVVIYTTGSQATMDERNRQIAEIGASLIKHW
# CHO = CHO cell viability loss, potency – luminescence, cytotoxicity control for TLR9-MyD88 binding inhibitor project, dose response (AID 588339); type: functional, cell-based, hamster; details: Cricetulus griseus;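 further: CHO cells stably coexpressing TLR9 and MyD88 fusions from primary screen; compound exposure lasted 48 hours before viability readout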
# [10] = blockers of HIV-1 ZM109 envelope-driven cell-cell fusion – HeLa effector, CEM target cells, luciferase, cherry-pick, dose response (AID 652058); type: functional, cell-based;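 further: luciferase signal from HIV-1 Env mediated cell-cell fusion of effector and target cells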
# [11] = viability loss in CEM21 cells – cell-based, CellTiter-Glo luminescence, cherry-picked, cytotoxicity control for viral fusion inhibitor project, dose response (AID 652042); type: functional;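 further: potency for signal decrease meaning cytotoxicity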
# [12] = off-target signal loss in HeLa-CEM21 co-culture – HeLa F-luc CTL cells, cherry-picked, counter-screen for HIV-1 Env fusion inhibitor project, dose response (AID 652040); type: functional, cell-based;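 further: potency for signal decrease marking cytotoxic or nonspecific inhibition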
# [13] = target: T3, Short transient receptor potential channel 4 (Mus musculus, UniProt Q9QUQ5); assay: calcium entry via TRPC4 opening agents – cell-based, HEK293 TRPC4/mu-opioid, Fluo-4 calcium, dose response (AID 434937); type: functional
# T3 sequence (Q9QUQ5 whole entry): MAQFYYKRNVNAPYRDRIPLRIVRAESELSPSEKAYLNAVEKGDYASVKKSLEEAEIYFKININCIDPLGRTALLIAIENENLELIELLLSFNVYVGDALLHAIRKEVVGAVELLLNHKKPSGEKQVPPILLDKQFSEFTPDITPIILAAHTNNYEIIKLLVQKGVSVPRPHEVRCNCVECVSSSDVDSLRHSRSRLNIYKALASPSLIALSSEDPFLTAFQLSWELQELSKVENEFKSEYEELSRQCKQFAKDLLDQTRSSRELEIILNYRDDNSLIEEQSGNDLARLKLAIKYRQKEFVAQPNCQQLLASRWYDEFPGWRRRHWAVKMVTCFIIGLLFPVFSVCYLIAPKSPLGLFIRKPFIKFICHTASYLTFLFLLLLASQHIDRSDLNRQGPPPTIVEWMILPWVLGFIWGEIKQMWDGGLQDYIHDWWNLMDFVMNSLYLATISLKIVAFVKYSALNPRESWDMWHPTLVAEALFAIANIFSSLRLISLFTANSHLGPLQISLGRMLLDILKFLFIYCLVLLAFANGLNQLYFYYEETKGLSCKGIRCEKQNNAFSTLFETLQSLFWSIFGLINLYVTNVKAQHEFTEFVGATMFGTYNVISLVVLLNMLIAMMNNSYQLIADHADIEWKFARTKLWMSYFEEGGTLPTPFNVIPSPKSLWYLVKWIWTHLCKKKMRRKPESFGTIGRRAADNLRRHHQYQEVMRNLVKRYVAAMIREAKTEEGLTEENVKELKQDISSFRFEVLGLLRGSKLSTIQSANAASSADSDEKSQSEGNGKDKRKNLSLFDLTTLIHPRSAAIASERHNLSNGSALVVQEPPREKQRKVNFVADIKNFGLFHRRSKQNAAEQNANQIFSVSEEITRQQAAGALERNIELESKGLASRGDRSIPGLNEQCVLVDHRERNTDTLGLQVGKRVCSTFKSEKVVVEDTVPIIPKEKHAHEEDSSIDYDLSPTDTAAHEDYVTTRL
# [14] = target: Delta-type opioid receptor (Homo sapiens, UniProt P41143); assay: Counterscreen for agonists of heterodimerization of the mu 1 (OPRM1) and delta 1 (OPRD1) opioid receptors: Luminescence-based cell-based high throughput dose response assay to identify agonists of OPRD1 homodimerization. [Related pubchem assays (depositor defined):AID504326, AID504355, AID504692, AID504904, AID504905]; type: functional
# Sequence of Delta-type opioid receptor (P41143 whole entry): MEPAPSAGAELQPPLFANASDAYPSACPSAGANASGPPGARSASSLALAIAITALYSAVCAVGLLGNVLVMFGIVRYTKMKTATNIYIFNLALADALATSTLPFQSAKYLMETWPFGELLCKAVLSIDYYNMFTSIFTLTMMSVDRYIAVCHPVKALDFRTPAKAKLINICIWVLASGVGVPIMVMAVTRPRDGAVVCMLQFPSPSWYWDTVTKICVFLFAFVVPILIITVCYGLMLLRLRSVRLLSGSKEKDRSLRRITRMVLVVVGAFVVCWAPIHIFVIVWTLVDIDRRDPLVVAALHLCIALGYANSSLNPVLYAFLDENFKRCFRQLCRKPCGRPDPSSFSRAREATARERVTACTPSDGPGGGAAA
# [15] = target: 5-hydroxytryptamine receptor 5A (Homo sapiens, UniProt P47898); assay: Counterscreen for agonists of OPRM1-OPRD1 heterodimerization: luminescence-based cell-based high throughput dose response assay to identify agonists of 5-hydroxytryptamine (serotonin) 5A receptor (HTR5A). [Related pubchem assays (depositor defined):AID504326, AID504355, AID504692, AID504904, AID504905]; type: functional
# Sequence of 5-hydroxytryptamine receptor 5A (P47898 whole entry): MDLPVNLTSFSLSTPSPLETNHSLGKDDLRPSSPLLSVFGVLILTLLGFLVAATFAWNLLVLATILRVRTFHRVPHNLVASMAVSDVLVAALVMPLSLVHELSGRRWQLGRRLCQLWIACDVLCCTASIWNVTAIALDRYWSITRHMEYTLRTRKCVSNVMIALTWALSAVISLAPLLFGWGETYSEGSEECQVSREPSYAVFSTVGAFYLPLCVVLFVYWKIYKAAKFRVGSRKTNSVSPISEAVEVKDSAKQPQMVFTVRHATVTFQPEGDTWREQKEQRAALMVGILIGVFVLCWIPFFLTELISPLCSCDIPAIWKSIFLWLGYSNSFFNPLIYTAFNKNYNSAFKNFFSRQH
# Mu-type opioid receptor = Mu-type opioid receptor (Homo sapiens, UniProt P35372); assay: Counterscreen for agonists of heterodimerization of the mu 1 (OPRM1) and delta 1 (OPRD1) opioid receptors: Luminescence-based cell-based high throughput dose response assay to identify agonists of OPRM1 homodimerization.; type: functional;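 further: U2OS cells expressing OPRM1 and beta-arrestin as split beta-galactosidase partners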
# Sequence of Mu-type opioid receptor (P35372 whole entry, the tested form may be a part): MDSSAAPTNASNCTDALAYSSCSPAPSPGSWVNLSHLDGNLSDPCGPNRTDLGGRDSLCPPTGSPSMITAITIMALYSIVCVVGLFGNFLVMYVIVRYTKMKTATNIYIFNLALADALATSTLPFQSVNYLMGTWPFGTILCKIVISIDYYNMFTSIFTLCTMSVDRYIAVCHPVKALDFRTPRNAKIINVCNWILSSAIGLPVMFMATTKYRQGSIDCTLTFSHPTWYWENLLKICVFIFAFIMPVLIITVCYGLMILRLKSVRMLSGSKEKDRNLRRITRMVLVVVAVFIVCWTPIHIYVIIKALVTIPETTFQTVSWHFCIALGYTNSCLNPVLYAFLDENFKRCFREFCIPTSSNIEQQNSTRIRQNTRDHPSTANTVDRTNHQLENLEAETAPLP
# [16] = blockers of HIV-1 envelope-mediated cell-cell fusion – cherry-pick, dose response (AID 652057); type: functional, cell-based
# [17] = HIV-1 AD8 envelope cell-cell fusion blockers – cherry-pick, dose response (AID 652062); type: functional, cell-based;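 further: luciferase signal from cell-cell fusion driven by HIV-1 clade B AD8 Env; potency is for inhibitors of fusion seen as a drop in luminescence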
# cells [18] = type: functional, cell-based
# cells [19] = type: functional, cell-based; remark: listed apart in the source
compound,measurement,setting,value
CC(=O)Oc1ccc2c(c1)OC(c1ccccc1)CC21CC(C)(C)N=C(S)N1 (centres undefined),AC50,Escherichia coli [1],31.7 µM (active)
CC(=O)c1ccc(NC(=O)CCC(=O)OCC(=O)c2cccc([N+](=O)[O-])c2)cc1,IC50,[2],34.5 µM (not active)
same,EC50,Beta-galactosidase,> 40 µM (inactive)
c1ccc2cc(C3CCCCC3)ncc2c1,AC50,HeLa,36.7 µM (active)
Cc1c(C)c2c(OCC(=O)NCc3ccncc3)cc3c(c2oc1=O)CCC(C)(C)O3,AC50,Trypsin,5.4 µM (active)
same,AC50,CAAX prenyl protease 2,0.759 µM (active)
Cc1cccc(NC(=O)c2ccc(NCCc3ccccc3)c([N+](=O)[O-])c2)c1,EC50,[3],> 99 µM (inactive)
same,EC50,[4],17.9 µM (active)
COC[C@H]1OC(=O)c2coc3c2[C@@]1(C)C1=C(C3=O)[C@@H]2CCC(=O)[C@@]2(C)C[C@H]1OC(C)=O [WORTMANNIN],EC50,[3],> 99 µM (inactive)
same,AC50,[5],0.363 µM (active)
same,EC50,[4],> 99 µM (inactive)
CN(C)[C@@H]1C(=O)C(C(N)=O)=C(O)[C@@]2(O)C(O)=C3C(=O)c4c(O)cccc4[C@@](C)(O)C3C[C@@H]12 (some centres undefined),EC50,Streptococcus,0.098 µM (active)
same,CC50,[6],> 40 µM (active)
same,AC50,Escherichia coli [1],19.9 µM (active)
same,EC50,[7],0.099 µM (active)
same,AC50,Escherichia coli [8],1.17 µM (active)
COc1ccc2c(c1)oc(=O)c1cc(OC)ccc12,AC50,HeLa,46.8 µM (active)
COc1c(N2CCN(C(S)=NCc3ccccc3)C(C)C2)c(F)cc2c(=O)c(C(=O)O)cn(C3CC3)c12 (centres undefined),IC50,NS3,14.9 µM (not active)
same,IC50,[9],5.55 µM (active)
same,AC50,DNA topoisomerase,27.8 µM (active)
Cc1ccc(CSC2=Nc3ccccc3C3=NC(=O)CN23)cc1,AC50,DNA topoisomerase,2.02 µM (active)
COc1ccc(C)cc1S(=O)(=O)N(CC(=O)NC1CCCC1)c1ccc(F)cc1,AC50,Escherichia coli [8],37.2 µM (active)
Nc1c(C(=O)Nc2ccccc2F)sc2nc(-c3cccnc3)ccc12,IC50,Beta Lactamase,14 µM (inactive)
same,IC50,CHO,21.7 µM (inactive)
COc1ccc(CNCCc2c[nH]c3ccccc23)c(OC)c1C,AC50,[10],7.75 µM (active)
same,AC50,[11],24.9 µM (active)
same,AC50,[12],5.48 µM (active)
same,EC50,[13],0.841 µM (active)
same,EC50,[14],> 92.5 µM (inactive)
same,EC50,[15],78.4 µM (inactive)
same,EC50,Mu-type opioid receptor,59.5 µM (inactive)
same,AC50,[16],2.44 µM (active)
same,AC50,[17],14.3 µM (active)
Cc1ccc(C2(O)C[N+](c3ccccc3C)=C3SCCN32)cc1 (centres undefined),EC50,cells [18],> 350 µM (not active)
same,EC50,[13],0.376 µM (active)
same,EC50,[14],> 92.5 µM (inactive)
same,EC50,[15],> 92.5 µM (inactive)
same,EC50,Mu-type opioid receptor,2.83 µM (active)
same,EC50,cells [19],> 350 µM (not active)
